Experimental data: PubChem BioAssay AID1259411 (Chemical Carcinogenesis Research Information System (CCRIS), 2018)
Calls of active or inactive are those of the source. No rule for the calls is given here.

Tested on: rodent carcinogenicity bioassays, tumor incidence
Assay: CCRIS carcinogenicity studies
Procedure, shortened: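 Archive of carcinogenicity, mutagenicity, tumor promotion and tumor inhibition results drawn from journals, NCI reports and other sources, expert-reviewed; covers 1985-2011 and is no longer updated.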

N[C@@H](Cc1c[nH]c2ccccc12)C(=O)O
carcinogen call (Species: MOUSE, Strain/Sex: B6C3F1/FEMALE, Route: ORAL, Dose: 0, 25000, 50000 PPM IN DIET, Dose: 0, 25000, 50000 PPM IN DIET): inactive; negative
carcinogen call (Species: MOUSE, Strain/Sex: B6C3F1/MALE, Route: ORAL, Dose: 0, 25000, 50000 PPM IN DIET, Dose: 0, 25000, 50000 PPM IN DIET): inactive; negative
carcinogen call (Species: RAT, Strain/Sex: F344/FEMALE, Route: ORAL, Dose: 0, 25000, 50000 PPM IN DIET, Dose: 0, 25000, 50000 PPM IN DIET): inactive; negative
carcinogen call (Species: RAT, Strain/Sex: F344/MALE, Route: ORAL, Dose: 0, 25000, 50000 PPM IN DIET, Dose: 0, 25000, 50000 PPM IN DIET): inactive; negative

O=[N+]([O-])c1ccc(-c2ccccc2)cc1
carcinogen call (Species: DOG, Strain/Sex: MONGREL/FEMALE, Route: ORAL, Dose: 300 MG 3/WK FOR LIFE, Tumor Site: Type of Lesion: URINARY BLADDER: EPITHELIAL CARCINOMA): active; positive
carcinogen call (Species: RAT, Strain/Sex: SPRAGUE-DAWLEY/FEMALE, Route: SUBCUTANEOUS, Dose: 0, 50, 100 UMOL/KG IN DMSO 1/WK FOR 8 WK (STUDY DURATION: 62 WK), Dose: 0, 50, 100 UMOL/KG IN DMSO 1/WK FOR 8 WK (STUDY DURATION: 62 WK)): inactive; negative
carcinogen call (Species: RAT, Strain/Sex: SPRAGUE-DAWLEY/MALE, Route: SUBCUTANEOUS, Dose: 0, 50, 100 UMOL/KG IN DMSO 1/WK FOR 8 WK (STUDY DURATION: 62 WK), Dose: 0, 50, 100 UMOL/KG IN DMSO 1/WK FOR 8 WK (STUDY DURATION: 62 WK)): inactive; negative

O=P1(O)OP(=O)(O)OP(=O)(O)O1
carcinogen call (Species: RAT, Strain/Sex: F344/FEMALE, Route: ORAL, Dose: 0, 1.5, 3% IN DIET FOR DURATION OF STUDY (STUDY DURATION: 108 WK), Dose: 0, 1.5, 3% IN DIET FOR DURATION OF STUDY (STUDY DURATION: 108 WK)): inactive; negative
carcinogen call (Species: RAT, Strain/Sex: F344/MALE, Route: ORAL, Dose: 0, 1.5, 3% IN DIET FOR DURATION OF STUDY (STUDY DURATION: 108 WK), Dose: 0, 1.5, 3% IN DIET FOR DURATION OF STUDY (STUDY DURATION: 108 WK)): inactive; negative

Nc1ncn[nH]1
carcinogen call (Species: HAMSTER, Strain/Sex: SYRIAN/FEMALE, Route: ORAL, Dose: 0, 1, 10, 100 PPM IN DIET (TOTAL DOSE: 0; 0.07; 0.6; 6.6 G/KG) FOR 822-856 D (STUDY DURATION: LIFETIME), Dose: 0, 1, 10, 100 PPM IN DIET (TOTAL DOSE: 0; 0.07; 0.6; 6.6 G/KG) FOR 822-856 D (STUDY DURATION: LIFETIME)): inactive; negative
carcinogen call (Species: HAMSTER, Strain/Sex: SYRIAN/MALE, Route: ORAL, Dose: 0, 1, 10, 100 PPM IN DIET (TOTAL DOSE: 0; 0.08; 0.8; 7.2 G/KG) FOR 885-979 D (STUDY DURATION: LIFETIME), Dose: 0, 1, 10, 100 PPM IN DIET (TOTAL DOSE: 0; 0.08; 0.8; 7.2 G/KG) FOR 885-979 D (STUDY DURATION: LIFETIME)): inactive; negative
carcinogen call (Species: MOUSE, Route: ORAL, Tumor Site: Type of Lesion: LIVER, THYROID GLAND): active; positive
carcinogen call (Species: MOUSE, Strain/Sex: NMRI/FEMALE, Route: ORAL, Dose: 0, 1, 10, 100 PPM IN DIET (TOTAL DOSE: 0; 0.17; 1.7; 18.2 G/KG) FOR 970-1027 D (STUDY DURATION: LIFETIME), Dose: 0, 1, 10, 100 PPM IN DIET (TOTAL DOSE: 0; 0.17; 1.7; 18.2 G/KG) FOR 970-1027 D (STUDY DURATION: LIFETIME)): inactive; negative
carcinogen call (Species: MOUSE, Strain/Sex: NMRI/MALE, Route: ORAL, Dose: 0, 1, 10, 100 PPM IN DIET (TOTAL DOSE: 0; 0.13; 1.3; 13.1 G/KG) FOR 1022-1028 D (STUDY DURATION: LIFETIME), Dose: 0, 1, 10, 100 PPM IN DIET (TOTAL DOSE: 0; 0.13; 1.3; 13.1 G/KG) FOR 1022-1028 D (STUDY DURATION: LIFETIME)): inactive; negative
carcinogen call (Species: RAT, Route: ORAL, Tumor Site: Type of Lesion: LIVER, THYROID GLAND): active; positive
carcinogen call (Species: RAT, Route: SUBCUTANEOUS, Tumor Site: Type of Lesion: INJECTION SITE, LIVER, THYROID GLAND, Tumor Site: Type of Lesion: INJECTION SITE, LIVER, THYROID GLAND): active; positive
carcinogen call (Species: RAT, Strain/Sex: WISTAR/FEMALE, Route: ORAL, Dose: 0, 1, 10, 100 PPM IN DIET (TOTAL DOSE: 0; 0.08; 0.8; 7.9 G/KG) FOR 1140-1143 D (STUDY DURATION: LIFETIME), Dose: 0, 1, 10, 100 PPM IN DIET (TOTAL DOSE: 0; 0.08; 0.8; 7.9 G/KG) FOR 1140-1143 D (STUDY DURATION: LIFETIME), Tumor Site: Type of Lesion: THYROID GLAND: MALIGNANT TUMOR): active; positive
carcinogen call (Species: RAT, Strain/Sex: WISTAR/MALE, Route: ORAL, Dose: 0, 1, 10, 100 PPM IN DIET (TOTAL DOSE: 0; 0.06; 0.6; 5.8 G/KG) FOR 1137-1143 D (STUDY DURATION: LIFETIME), Dose: 0, 1, 10, 100 PPM IN DIET (TOTAL DOSE: 0; 0.06; 0.6; 5.8 G/KG) FOR 1137-1143 D (STUDY DURATION: LIFETIME), Tumor Site: Type of Lesion: THYROID GLAND: MALIGNANT TUMOR): active; positive

CCOP(=S)(OCC)Oc1nc(Cl)n(C(C)C)n1
carcinogen call (Species: Mouse, Strain/Sex: Crl:CD-1(ICR)BR/Female (60/Group), Route: Oral, Dose: 0, 0.3, 1.0, 30, 300 ppm of 94.9% of isazophos in diet for 18 mo, study duration 18 mo, Dose: 0, 0.3, 1.0, 30, 300 ppm of 94.9% of isazophos in diet for 18 mo, study duration 18 mo): inactive; negative
carcinogen call (Species: Mouse, Strain/Sex: Crl:CD-1(ICR)BR/Male (60/Group), Route: Oral, Dose: 0, 0.3, 1.0, 30, 300 ppm (reduced to 250 at wk 23) ppm of 94.9% of isazophos in diet for 18 mo, study duration 18 mo, Dose: 0, 0.3, 1.0, 30, 300 ppm (reduced to 250 at wk 23) ppm of 94.9% of isazophos in diet for 18 mo, study duration 18 mo): inactive; negative
carcinogen call (Species: Rat, Strain/Sex: Crl:CD(SD)BR/Female (60/Group), Route: Oral, Dose: 0, 0.1, 1.0, 300 reduced to 250 at wk 22 and then to 200 ppm at wk 66 of 94.9% of isazophos in diet for 24 mo, study dur, Dose: 0, 0.1, 1.0, 300 reduced to 250 at wk 22 and then to 200 ppm at wk 66 of 94.9% of isazophos in diet for 24 mo, study dur): inactive; negative
carcinogen call (Species: Rat, Strain/Sex: Crl:CD(SD)BR/Male (60/Group), Route: Oral, Dose: 0, 0.1, 1.0, 300 ppm of 94.9% of isazophos in diet for 24 mo, study duration 24 mo, Dose: 0, 0.1, 1.0, 300 ppm of 94.9% of isazophos in diet for 24 mo, study duration 24 mo): inactive; negative

COc1cccc2c1cc([N+](=O)[O-])c1c(C(=O)O)cc3c(c12)OCO3 (tested in a mixture with another compound)
carcinogen call (Species: RAT, Strain/Sex: WISTAR/FEMALE, Route: GAVAGE, Dose: 0.1, 1.0, 10 MG/KG/D, 7 D/WK FOR 3 MO (LOW DOSE ALSO GIVEN FOR 6 OR 12 MO), Dose: 0.1, 1.0, 10 MG/KG/D, 7 D/WK FOR 3 MO (LOW DOSE ALSO GIVEN FOR 6 OR 12 MO), Tumor Site: Type of Lesion: FORESTOMACH: PAPILLOMA, CARCINOMA): active; positive
carcinogen call (Species: RAT, Strain/Sex: WISTAR/MALE, Route: GAVAGE, Dose: 0.1, 1.0, 10 MG/KG/D, 7 D/WK FOR 3 MO (LOW DOSE ALSO GIVEN FOR 6 OR 12 MO), Dose: 0.1, 1.0, 10 MG/KG/D, 7 D/WK FOR 3 MO (LOW DOSE ALSO GIVEN FOR 6 OR 12 MO), Tumor Site: Type of Lesion: FORESTOMACH: PAPILLOMA, CARCINOMA, URINARY BLADDER: PAPILLOMA, CARCINOMA, KIDNEY: CARCINOMA, Tumor Site: Type of Lesion: FORESTOMACH: PAPILLOMA, CARCINOMA, URINARY BLADDER: PAPILLOMA, CARCINOMA, KIDNEY: CARCINOMA): active; positive

CC/C(=C(\c1ccc(O)cc1)c1ccc(OCCN(C)C)cc1)c1ccccc1
carcinogen call (Species: RAT, Strain/Sex: SPRAGUE-DAWLEY/FEMALE, Route: DERMAL, Dose: 0, 20, 140, 1000 UG/KG/D FOR 101 WK (STUDY DURATION: 101 WK), Dose: 0, 20, 140, 1000 UG/KG/D FOR 101 WK (STUDY DURATION: 101 WK)): inactive; negative

Oc1ccc(Cl)cc1Cl
carcinogen call (Species: MOUSE, Strain/Sex: B6C3F1/FEMALE, Route: ORAL, Dose: 0, 5000, 10000 PPM IN FEED FOR 103 WK (STUDY DURATION: 104 WK), Dose: 0, 5000, 10000 PPM IN FEED FOR 103 WK (STUDY DURATION: 104 WK)): inactive; negative
carcinogen call (Species: MOUSE, Strain/Sex: B6C3F1/MALE, Route: ORAL, Dose: 0, 5000, 10000 PPM IN FEED FOR 103 WK (STUDY DURATION: 104 WK), Dose: 0, 5000, 10000 PPM IN FEED FOR 103 WK (STUDY DURATION: 104 WK)): inactive; negative
carcinogen call (Species: RAT, Strain/Sex: F344/FEMALE, Route: ORAL, Dose: 0, 2500, 5000 PPM IN FEED FOR 103 WK (STUDY DURATION: 104 WK), Dose: 0, 2500, 5000 PPM IN FEED FOR 103 WK (STUDY DURATION: 104 WK)): inactive; negative
carcinogen call (Species: RAT, Strain/Sex: F344/MALE, Route: ORAL, Dose: 0, 5000, 10000 PPM IN FEED FOR 103 WK (STUDY DURATION: 104 WK), Dose: 0, 5000, 10000 PPM IN FEED FOR 103 WK (STUDY DURATION: 104 WK)): inactive; negative
